In patent US20230265043A1, “CRYSTALLINE FORM OF PHENTERMINE HYDROCHLORIDE AND PROCESS FOR OBTAINING SAME” (priority 2020, published 2023):
Where a name gives a salt, the structure may show the parent alone.

Experiments:
Assay type in all cases: physicochemical
[1] = dynamic water vapor adsorption (DVS) at 60%, 80% and 95% relative humidity; conditions: for gain by mass at 80% relative humidity: 25° C., equilibrium reached; for hygroscopicity classification according to the British Pharmacopoeia, Ed. 2016: based on mass gain at 80% relative humidity
Text: (§1) In all humidity conditions, the equilibrium criterion of mass variation of less than 0.001% was reached.
FIG. 13 presents dynamic water vapor sorption experiments under different humidity conditions for the anhydrous and monohydrate forms of phentermine hydrochloride. It is noted that in all analyzed humidity conditions, the system reached equilibrium, with the monohydrate form being much less hygroscopic than the anhydrous form. Phentermine hydrochloride in anhydrous form has a gain of about 7.5% by mass at 80% relative humidity, being classified as hygroscopic according to the British Pharmacopoeia (BF) (British Pharmacopoeia, Ed. 2016), which can cause dosing problems if the active is manipulated in high humidity conditions. In addition, the fact that the anhydrous form is hygroscopic allows its conversion to the monohydrate form in case of exposure to excessive amounts of water.

[2] = DSC heating and X-ray diffraction after heating (conversion of monohydrate to anhydrous form); conditions: 10° C./min, nitrogen flow, XRD after heating at 60° C.
Protocol: (B), when it converts to anhydrous form.
(§2) The Differential Scanning calorimetry (DSC) experiment (FIG. 8) is performed under an inert atmosphere using nitrogen flow. Therefore, for phentermine hydrochloride monohydrate, such flow favors water loss, and the experiment will have underestimated results.
Furthermore, the melting of the anhydrous form occurs around 200° C. in which the active also starts the decomposition process.

[3] = dynamic water vapor desorption, relative humidity 95% to 0% at 25° C.; conditions: desorption 95% to 0% RH in steps of 5%, 25° C. (FIG. 9)
Protocol: as §1, §2

[4] = accelerated stability study in oven, 50° C. and 75% relative humidity, 30 days
Protocol: Phentermine hydrochloride monohydrate's stability was tested by keeping 25 g of sample in an oven under conditions of 50° C. and 75% relative humidity for 30 days, as recommended by the FDA guide (Food and Drug Administration, Guidance for Industry Q1A(R2) Stability Testing of New Drug Substances and Products, November 2003 rev.2).

SMILES	gain by mass at 80% relative humidity ([1]; 80% relative humidity)	hygroscopicity classification according to the British Pharmacopoeia, Ed. 2016 [1]	times less hygroscopic than the anhydrous form ([1]; 80% relative humidity) [times]	temperature of conversion to the anhydrous form on heating [2]	relative humidity in which the form is stable [3]	polymorphic conversion after accelerated stability test (infrared absorption and X-ray diffraction) [4]
CC(C)(N)Cc1ccccc1.Cl [2-methyl-1-phenylpropan-2-amine, reference compound]	about 7.5 % by mass	hygroscopic	–	–	–	–
CC(C)(N)Cc1ccccc1 [Phentermine hydrochloride monohydrate, phentermine hydrochloride monohydrate]	about 0.75 % by mass	slightly hygroscopic	10	above 50 °C	higher than 50%	no polymorphic conversion
